Data set [1] concerns matrix metalloproteinase 9 (MMP-9) expression. Nature of the data set: Quantikine Human MMP-9 (total) immunoassay, MMP-9 expression in influenza-A-infected Vero cells. The class given is cell-based, African Green Monkey. As to conditions: influenza A-infected Vero cell supernatants, FIGS. 5 and 6. The procedure:
A Quantikine Human MMP-9 (total) Immunoassay Assay, R&D Systems, was used to quantify expression of MMP-9 in infected cells according to the manufacturer's protocol, which is incorporated herein by reference.
Vero cells were plated at 1e^5 cells/mL in a 100 uL volume in tissue culture treated 96 well plates. The following day cells were infected with virus at a multiplicity of infection of 10 and viral activity was measured. For testing compounds, cells were preincubated with compound 1 hr prior to infection. After overnight incubation, the cells were harvested, lysed, and supernatants were subjected to assay.
This MMP-9 assay employs the quantitative sandwich enzyme immunoassay technique. A monoclonal antibody specific for MMP-9 has been pre-coated onto a microplate. Standards and samples are pipetted into the wells, and MMP-9 is bound by the immobilized antibody. After washing away unbound substances, an enzyme-linked polyclonal antibody specific for MMP-9 is added to the wells. Following a wash to remove unbound antibody-enzyme reagent, a substrate solution is added to the wells and color develops in proportion to the amount of total MMP-9 (pro and/or active) bound in the initial step. The color development is stopped and the intensity of the color is measured.
Test formulations are shown in Example 5, Table 1. […]

In another data set the test system is A or B influenza virus. As to conditions: started during the first 48 hours after onset of symptoms; cited from earlier work.
The conditions of data set [2]: adults; cited from earlier work.
The conditions of data set [3]: animal studies, substantially high doses; cited from earlier work.

Results on four molecules are retold here after US12702677B2 (priority 2008, dated 2026).

With `CCOC(=O)C1=C[C@@H](OC(CC)CC)[C@H](NC(C)=O)[C@@H](N)C1` [Formula T, oseltamivir phosphate], the “inhibition of expression of MMP-9” value is “pronounced dose-dependent inhibition of expression of MMP-9” in data set [1] and “inhibits expression of MMP-9” in data set [1] (listed as Tamiflu®). In addition, in the data set with A or B influenza virus, the “reduction of the duration of a typical seven day illness” value was “about one”. `CC(=O)N[C@H]1[C@H]([C@H](O)[C@H](O)CO)OC(C(=O)O)=C[C@@H]1N=C(N)N` [Relenza®, zanamivir]: the “reduction of the duration of a typical seven day illness” value in the data set on A or B influenza virus is “about one”.

As for `Cc1ncc(CO)c(CO)c1O` [Vitamin B6, Pyridoxine], the safe intake result in data set [2] was “up to 200 mg per day”. As for `CC(N)C12CC3CC(CC(C3)C1)C2` (stereo not drawn) [rimantadine], the teratogenicity and embryotoxicity entry in data set [3] was “teratogenic and embryotoxic”.
